The values below come from US4791215A, “Derivatives of glutamic acid and aspartic acid” (priority 1984, dated 1988).

For assay [1], the system named is CCK-8 induced contraction of guinea pig gall bladder. The experiment in a line: Anti-CCK activity on gall bladder strips in vitro. The note with it: CCK-8 10 ng/ml. The procedure, abridged:
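Longitudinal guinea pig gall bladder strips in Krebs at 32 °C, gassed with O2/CO2 95:5, were contracted with 10 ng/ml CCK-8. Isometric force was recorded across several compound concentrations, and ED50 was taken as the μg/ml concentration antagonising 50% of the CCK contraction.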

The next assay relates to morphine analgesia. The assay is described as follows: Increase in analgesia of morphine, Tail Flick Test (Experiment 1). The conditions noted are these: for percentage variation of latency of pain sensation / M (10-90) ± SE, mean percentage variation of latency: compound 10 mg/kg i.p. + morphine 2 mg/kg; for M (10-90) ± SE, mean percentage variation of latency: mean 10-90 min; for Power ratio with respect to morphine alone: rat, in vivo. The format is in vivo, rats. In outline:
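Non-fasted male rats (150-200 g); a tail point is exposed to a 75 °C heat source and latency to tail movement recorded, 8 s cut-off. Readings taken before and 10, 20, 30, 45, 60 and 90 min after analgesic treatment; percentage variation calculated per animal.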
(In hot-plate and tail-flick tests a longer latency is read as antinociception.)

Assay [2] deals with intestinal transit of carbon. The assay is described as follows: Anti-spastic activity, vegetable carbon intestinal transit test. In kind it is in vivo, mice. The note with it: Mus musculus, ip; read-out: antispastic activity ED50 (dose reducing intestinal transit of carbon by 50%). From the text: The anti-spastic activity which the present compounds exert on the entire digestive system is also notable. Measured in mice with the vegetable carbon test (rate of transit through the stomach and the intestine), this activity is illustrated in the following table.
claimed administered intraperitoneally in mice. Values
expressed as the ED 50 in mg/kg, that is the dose which
reduces the intestinal transit of carbon by 50%

Assay [3] deals with CCK-8 induced contraction of guinea pig gall bladder. The experiment in a line: Anti-CCK-8 activity on gall bladders in situ. The format is in vivo. The procedure:
In order to confirm the evidence of the studies in vitro several of the more interesting compounds were tested in vivo on guinea pig gall baldders in situ.
The method used is that described by Ljungberg (Svensk. Farm. Tidskr. 68, 351-354, 1964).
Guinea pigs having a weight of about 400 g, anaesthetised with urethane, were used; the substances under examination were administered intraveneously into the jugular vein.
The responses of the gall bladders to the substances under test were detected by means of a force transducer and recorded by means of a microdynamometer. The optimum contracting dose was chosen as 10 ng/kg of CCK-8. The antagonist compounds tested were administered in increasing doses so as to enable the calculation of an ED50 value, that is in the dose (in mg/kg i.v.) capable of inhibiting 50% of the contracting effect of 10 ng/kg i.v. of CCK-8.
The results obtained are given in Table 7 below, which gives the doses used and the effects obtained expressed as a percentage inhibition of the contracting effect of CCK-8 as well as the ED50 found.

The subject of assay [4] is endogenous opiates analgesia. The assay is described as follows: Analgesic activity of endogenous opiates released by transcutaneous shock, Tail Flick Test (Experiment 3). The format is in vivo, rats. The procedure:
Experiment No. 3: Influence of several of the compounds of the invention on the analgesic activities of endogenous opiates released by transcutaneous shock in rats and measured by the Tail Flick Test
The method is that described by Lewis et al. J. Neurosc. 1, 358 […]. Male rats which have not fasted and have a weight of about 200 g are used.
The animals are stressed by the application of a 60 Hz-2.5 mA current to the front leg in pulses of a duration of 1 second every 5 seconds for 20 minutes.
This stress regime induces the release of endogenous opiates.

The next assay relates to biliary flow. The experiment in a line: Biliary flow (choleretic activity). In kind it is in vivo, rat. The procedure: The following experiment was carried out: a cannula was inserted in the bile duct of a rat anaesthetised with urethane, together with a small needle connected to a polythene tube, and the bile liquid was thus collected. The collection was carried out for one hour before the intravenous administration of the tested compounds and for a further two hours after administration, the samples collected at 30 minute intervals being weighed.
In order to prevent possible dehydration of the animals, 0.5 ml of physiological solution was administered at 30 minute intervals up to a total of 3 ml.

Where “and” joins values, the source holds several entries; their conditions need not be identical. Equal entries are not always repeated. Where only a bound is given, the exact number is not on record here.

The term ED50 denotes the dose at which the effect has come halfway, by size or by number of responders. With `CCCCN(CCCC)C(=O)C(CCC(=O)O)NC(=O)c1ccc(I)cc1` (stereo not shown) [Compound C-27], the “ED50 (concentration antagonising 50% of contracting effect of CCK-8)” value in assay [1] was 10.2 µg/mL. In addition, the “percentage variation of latency of pain sensation” value amounted to 52.3 ± 13.0% with morphine analgesia (10'); 81.4% in the assay with morphine analgesia (20'); 90.2 ± 7.0% in the assay with morphine analgesia (30'); 85.9 ± 10.0% with morphine analgesia (45'); 60.3 ± 15.0% in the assay with morphine analgesia (60'); 50.3 ± 13.0% in the assay on morphine analgesia (90'). The “M (10-90) ± SE, mean percentage variation of latency” value in the assay on morphine analgesia was 70.0 ± 17.8%. Further, the “Power ratio with respect to morphine alone” value (from here on “Power ratio”) with morphine analgesia came to 2.35. Further, in assay [2], the ED50 amounted to 40.3 mg/kg.

Turning to `CCCN(CCC)C(=O)C(CCC(=O)O)NC(=O)c1cccc(C)c1` (stereo not shown) [Compound C-28], the “ED50 (concentration antagonising 50% of contracting effect of CCK-8)” value in assay [1] is greater than 300 µg/mL. Moreover, the “percentage variation of latency of pain sensation” value worked out at 15.7 ± 10% in the assay with morphine analgesia (10'); 66.8 ± 18% in the assay with morphine analgesia (20'); 68.3 ± 20% in the assay on morphine analgesia (30'); 68.4 ± 17% in the assay on morphine analgesia (45'); 74.5 ± 11% in the assay with morphine analgesia (60'); 27.5 ± 15% in the assay on morphine analgesia (90'). Moreover, in the assay with morphine analgesia, the “M (10-90) ± SE, mean percentage variation of latency” value is on record as 53.5 ± 25%. The “Power ratio” value with morphine analgesia is 1.80. In addition, the ED50 in assay [2] is 91.8 mg/kg.

Consider `CCCN(CCC)C(=O)C(CCC(=O)O)NC(=O)c1cc(C)cc(C)c1` (stereo not shown) [Compound C-31], for which, in assay [1], the “ED50 (concentration antagonising 50% of contracting effect of CCK-8)” value was 22.9 µg/mL. For the same compound, the “percentage inhibition of contracting effect of CCK-8” value in assay [3] (30 mg/kg i.v., single experiments) is 82.1% and 92.5% and 58.7%. Moreover, in assay [3] (Cavia porcellus, iv, CCK-8 10 ng/kg i.v., read-out: ED50 (inhibition of 50% of contracting effect of CCK-8)), the ED50 was found to be 16.3 mg/kg. The “percentage variation of latency of pain sensation” value in the assay on morphine analgesia (10') is 28.9 ± 17%; in the assay with morphine analgesia (20') it was 43.3 ± 25%; in the assay on morphine analgesia (30'), 54.7 ± 22%; in the assay with morphine analgesia (45') it was 68.0 ± 22%; with morphine analgesia (60'), 57.4 ± 16%; with morphine analgesia (90'), 49.5 ± 19%. In addition, the “M (10-90) ± SE, mean percentage variation of latency” value with morphine analgesia stood at 50.4 ± 14%. Also, the “Power ratio” value with morphine analgesia was determined as 1.69.

For the compound `CCCN(CCC)C(=O)C(CCC(=O)O)NC(=O)c1ccc(CC)cc1` (stereo not shown) [Compound C-34], the “ED50 (concentration antagonising 50% of contracting effect of CCK-8)” value in assay [1] amounted to 40.1 µg/mL. In addition, the “average latency, Tail Flick” value turned out to be 5.40 ± 0.35 s in assay [4] (compound 1 mg/kg iv + stress, 5'); 4.9 ± 0.25 s in assay [4] (compound 1 mg/kg iv + stress, 10'); 3.4 ± 0.16 s in assay [4] (compound 1 mg/kg iv + stress, 15'); 6.56 ± 0.33 s in assay [4] (compound 3 mg/kg iv + stress, 5'); 5.58 ± 0.31 s in assay [4] (compound 3 mg/kg iv + stress, 10'); 3.98 ± 0.32 s in assay [4] (compound 3 mg/kg iv + stress, 15'). The “percentage variation of latency of pain sensation” value in the assay with morphine analgesia (10') stood at 19.6 ± 23%; in the assay on morphine analgesia (20'), 59 ± 17%; in the assay with morphine analgesia (30'), 85.5 ± 10%; in the assay with morphine analgesia (45') it was 78.4 ± 16%; with morphine analgesia (60'), 67 ± 20%; in the assay with morphine analgesia (90'), 59.1%. Further, in the assay with morphine analgesia, the “M (10-90) ± SE, mean percentage variation of latency” value is given as 60.6 ± 23%. Also, the “Power ratio” value with morphine analgesia was 2.03. Further, in assay [2], the 50% effective dose (ED50) worked out at 65.5 mg/kg.

Take `CCCCc1ccc(C(=O)NC(CCC(=O)O)C(=O)N(CCC)CCC)cc1` (stereo not shown) [Compound C-37]: the “percentage variation of latency of pain sensation” value came out at 27.6 ± 13% with morphine analgesia (10'); 45.8 ± 18% with morphine analgesia (20'); 55.0 ± 16% in the assay with morphine analgesia (30'); 51.1% in the assay with morphine analgesia (45'); 23.4 ± 21% in the assay with morphine analgesia (60'); 12.4 ± 13% in the assay with morphine analgesia (90'). Further, the “M (10-90) ± SE, mean percentage variation of latency” value with morphine analgesia was determined as 35.9 ± 17%. The “Power ratio” value with morphine analgesia was found to be 1.20. Further, the median effective dose (ED50) in assay [2] is 160 mg/kg.

With `CCCc1ccc(C(=O)NC(CCC(=O)O)C(=O)N(CC)CC)cc1` (stereo not shown) [Compound C-41], the “percentage variation of latency of pain sensation” value in the assay with morphine analgesia (10') was determined as 32.1 ± 18%; in the assay on morphine analgesia (20') it was 60.0 ± 22%; in the assay on morphine analgesia (30'), 40.0 ± 17%; with morphine analgesia (45'), 46.7 ± 23%; in the assay with morphine analgesia (60'), 11.5%; in the assay on morphine analgesia (90'), 7.4 ± 20%. In addition, the “M (10-90) ± SE, mean percentage variation of latency” value in the assay on morphine analgesia is reported as 32.9 ± 20%. Besides, the “Power ratio” value in the assay with morphine analgesia was 1.10. The ED50 in assay [2] turned out to be 182 mg/kg.

With `CCCCCCNC(=O)C(CCC(=O)O)NC(=O)c1ccc(C)c(C)c1` (stereo not shown) [Compound C-46], the “percentage variation of latency of pain sensation” value is on record as 14.7 ± 9% with morphine analgesia (10'); 60.0 ± 18% with morphine analgesia (20'); 28.0 ± 5% with morphine analgesia (30'); 55.2 ± 20% in the assay on morphine analgesia (45'); 30.2 ± 17% in the assay on morphine analgesia (60'); 12.2 ± 11% with morphine analgesia (90'). Further, in the assay on morphine analgesia, the “M (10-90) ± SE, mean percentage variation of latency” value was determined as 32.9 ± 21%. The “Power ratio” value in the assay on morphine analgesia is reported as 1.10. The ED50 in assay [2] amounted to 66.9 mg/kg.

For the compound `CCCCN(CCCC)C(=O)CCC(NC(=O)c1cccc(C#N)c1)C(=O)O` [Compound D-5], the “ED50 (concentration antagonising 50% of contracting effect of CCK-8)” value in assay [1] was greater than 200 µg/mL. The “percentage variation of latency of pain sensation” value in the assay on morphine analgesia (10') was found to be 72.2%; in the assay with morphine analgesia (20') it was 92.5 ± 7.0%; with morphine analgesia (30') it was 95.3 ± 5.0%; in the assay with morphine analgesia (45'), 96.0 ± 4.0%; in the assay on morphine analgesia (60') it was 74.3 ± 11.0%; in the assay with morphine analgesia (90'), 75.5%. In addition, the “M (10-90) ± SE, mean percentage variation of latency” value with morphine analgesia turned out to be 84.3 ± 11.4%. In the assay with morphine analgesia, the “Power ratio” value worked out at 2.83. The ED50 in assay [2] stood at 74.9 mg/kg.

As for `N#Cc1cccc(C(=O)NC(CCC(=O)N2CCCCC2)C(=O)O)c1` [Compound D-11], the “ED50 (concentration antagonising 50% of contracting effect of CCK-8)” value in assay [1] is greater than 200 µg/mL. Moreover, the “% increase in biliary flow with respect to controls” value in the assay with biliary flow (12.5 mg/kg i.v.) was “+33.7%”; in the assay with biliary flow (25 mg/kg i.v.), “+80.0%”; with biliary flow (50 mg/kg i.v.), “+118.8%”. Also, in the assay with biliary flow (Rattus norvegicus, iv, average over 2 hours, read-out: ED50 (dose causing 50% increase in biliary flow)), the ED50 came to 18.5 mg/kg. Besides, the “percentage variation of latency of pain sensation” value was determined as 25.3 ± 7.0% in the assay on morphine analgesia (10'); 68.3% with morphine analgesia (20'); 74.8 ± 18.0% in the assay on morphine analgesia (30'); 82.8 ± 17.0% in the assay on morphine analgesia (45'); 86.2 ± 14.0% in the assay with morphine analgesia (60'); 77.5 ± 13.0% with morphine analgesia (90'). The “M (10-90) ± SE, mean percentage variation of latency” value in the assay with morphine analgesia was determined as 69.1%. Further, in the assay on morphine analgesia, the “Power ratio” value is recorded as 2.32.
